Data from PubChem BioAssay (NCI).
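Compound exposure: 48 hours, 5 concentrations, 96-well plates. TGI denotes the concentration required for complete inhibition of growth.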

Experiments:
Assay in all cases: NCI anticancer screen, dose series, 48 h
786-0 renal = tested on: 786-0 renal
A498 renal = tested on: A498 renal
A549 NSCLC = tested on: A549 NSCLC
ACHN renal = tested on: ACHN renal
CAKI-1 renal = tested on: CAKI-1 renal
CCRF-CEM leukemia = tested on: CCRF-CEM leukemia
COLO 205 colon = tested on: COLO 205 colon
DMS 114 small cell lung = tested on: DMS 114 small cell lung
DMS 273 small cell lung = tested on: DMS 273 small cell lung
EKVX NSCLC = tested on: EKVX NSCLC
HCC-2998 colon = tested on: HCC-2998 colon
HCT-116 colon = tested on: HCT-116 colon
HCT-15 colon = tested on: HCT-15 colon
HL-60(TB) leukemia = tested on: HL-60(TB) leukemia
HOP-18 NSCLC = tested on: HOP-18 NSCLC
HOP-62 NSCLC = tested on: HOP-62 NSCLC
HOP-92 NSCLC = tested on: HOP-92 NSCLC
HT29 colon = tested on: HT29 colon
IGROV1 ovarian = tested on: IGROV1 ovarian
K-562 leukemia = tested on: K-562 leukemia
KM12 colon = tested on: KM12 colon
KM20L2 colon = tested on: KM20L2 colon
LXFL 529 NSCLC = tested on: LXFL 529 NSCLC
M14 melanoma = tested on: M14 melanoma
M19-MEL melanoma = tested on: M19-MEL melanoma
MALME-3M melanoma = tested on: MALME-3M melanoma
MOLT-4 leukemia = tested on: MOLT-4 leukemia
NCI-H226 lung = tested on: NCI-H226 lung
NCI-H23 lung = tested on: NCI-H23 lung
NCI-H460 lung = tested on: NCI-H460 lung
NCI-H522 lung = tested on: NCI-H522 lung
OVCAR-3 ovarian = tested on: OVCAR-3 ovarian
OVCAR-4 ovarian = tested on: OVCAR-4 ovarian
OVCAR-5 ovarian = tested on: OVCAR-5 ovarian
OVCAR-8 ovarian = tested on: OVCAR-8 ovarian
RPMI-8226 leukemia = tested on: RPMI-8226 leukemia
RXF 393 renal = tested on: RXF 393 renal
RXF-631 renal = tested on: RXF-631 renal
SF-268 CNS = tested on: SF-268 CNS
SF-295 CNS = tested on: SF-295 CNS
SF-539 CNS = tested on: SF-539 CNS
SK-MEL-2 melanoma = tested on: SK-MEL-2 melanoma
SK-MEL-28 melanoma = tested on: SK-MEL-28 melanoma
SK-MEL-5 melanoma = tested on: SK-MEL-5 melanoma
SK-OV-3 ovarian = tested on: SK-OV-3 ovarian
SN12C renal = tested on: SN12C renal
SNB-19 CNS = tested on: SNB-19 CNS
SNB-75 CNS = tested on: SNB-75 CNS
SNB-78 CNS = tested on: SNB-78 CNS
SW-620 colon = tested on: SW-620 colon
TK-10 renal = tested on: TK-10 renal
U251 CNS = tested on: U251 CNS
UACC-257 melanoma = tested on: UACC-257 melanoma
UACC-62 melanoma = tested on: UACC-62 melanoma
DLD-1 colon = tested on: DLD-1 colon
UO-31 renal = tested on: UO-31 renal

CC(=O)O[C@H]1CSC[C@@H](OC(C)=O)C1[N+](=O)[O-] (some centres not stated)
TGI (786-0 renal): 36.5 µM
TGI (A498 renal): > 100 µM
TGI (A549 NSCLC): > 100 µM
TGI (ACHN renal): > 100 µM
TGI (CAKI-1 renal): > 100 µM
TGI (CCRF-CEM leukemia): 44.4 µM
TGI (COLO 205 colon): 49.1 µM
TGI (DMS 114 small cell lung): > 100 µM
TGI (DMS 273 small cell lung): > 100 µM
TGI (EKVX NSCLC): > 100 µM
TGI (HCC-2998 colon): > 100 µM
TGI (HCT-116 colon): > 100 µM
TGI (HCT-15 colon): 88.9 µM
TGI (HL-60(TB) leukemia): 54.6 µM
TGI (HOP-18 NSCLC): > 100 µM
TGI (HOP-62 NSCLC): > 100 µM
TGI (HOP-92 NSCLC): 39.7 µM
TGI (HT29 colon): > 100 µM
TGI (IGROV1 ovarian): > 100 µM
TGI (K-562 leukemia): > 100 µM
TGI (KM12 colon): > 100 µM
TGI (KM20L2 colon): > 100 µM
TGI (LXFL 529 NSCLC): 34 µM
TGI (M14 melanoma): 87.7 µM
TGI (M19-MEL melanoma): > 100 µM
TGI (MALME-3M melanoma): 41.6 µM
TGI (MOLT-4 leukemia): 78.7 µM
TGI (NCI-H226 lung): > 100 µM
TGI (NCI-H23 lung): > 100 µM
TGI (NCI-H460 lung): > 100 µM
TGI (NCI-H522 lung): 36.8 µM
TGI (OVCAR-3 ovarian): 55.3 µM
TGI (OVCAR-4 ovarian): > 100 µM
TGI (OVCAR-5 ovarian): > 100 µM
TGI (OVCAR-8 ovarian): > 100 µM
TGI (RPMI-8226 leukemia): 59.5 µM
TGI (RXF 393 renal): 36.1 µM
TGI (RXF-631 renal): > 100 µM
TGI (SF-268 CNS): > 100 µM
TGI (SF-295 CNS): > 100 µM
TGI (SF-539 CNS): > 100 µM
TGI (SK-MEL-2 melanoma): 66.9 µM
TGI (SK-MEL-28 melanoma): 69.4 µM
TGI (SK-MEL-5 melanoma): > 100 µM
TGI (SK-OV-3 ovarian): > 100 µM
TGI (SN12C renal): > 100 µM
TGI (SNB-19 CNS): > 100 µM
TGI (SNB-75 CNS): > 100 µM
TGI (SNB-78 CNS): > 100 µM
TGI (SW-620 colon): 74.3 µM
TGI (TK-10 renal): > 100 µM
TGI (U251 CNS): > 100 µM
TGI (UACC-257 melanoma): 52 µM
TGI (UACC-62 melanoma): > 100 µM

CCn1c(=O)nc2n(-c3ccc(SC)cc3)c3ccccc3nc-2c1=O
TGI (786-0 renal): > 100 µM
TGI (A498 renal): > 100 µM
TGI (A549 NSCLC): > 100 µM
TGI (ACHN renal): > 100 µM
TGI (CAKI-1 renal): > 100 µM
TGI (CCRF-CEM leukemia): > 100 µM
TGI (COLO 205 colon): > 100 µM
TGI (DLD-1 colon): > 100 µM
TGI (DMS 114 small cell lung): > 100 µM
TGI (DMS 273 small cell lung): > 100 µM
TGI (EKVX NSCLC): > 100 µM
TGI (HCC-2998 colon): > 100 µM
TGI (HCT-15 colon): > 100 µM
TGI (HL-60(TB) leukemia): > 100 µM
TGI (HOP-18 NSCLC): > 100 µM
TGI (HOP-62 NSCLC): > 100 µM
TGI (HOP-92 NSCLC): > 100 µM
TGI (IGROV1 ovarian): > 100 µM
TGI (K-562 leukemia): > 100 µM
TGI (KM12 colon): > 100 µM
TGI (KM20L2 colon): > 100 µM
TGI (LXFL 529 NSCLC): > 100 µM
TGI (M14 melanoma): > 100 µM
TGI (M19-MEL melanoma): > 100 µM
TGI (MALME-3M melanoma): > 100 µM
TGI (MOLT-4 leukemia): > 100 µM
TGI (NCI-H226 lung): > 100 µM
TGI (NCI-H23 lung): > 100 µM
TGI (NCI-H460 lung): > 100 µM
TGI (NCI-H522 lung): > 100 µM
TGI (OVCAR-3 ovarian): > 100 µM
TGI (OVCAR-4 ovarian): > 100 µM
TGI (OVCAR-5 ovarian): > 100 µM
TGI (OVCAR-8 ovarian): > 100 µM
TGI (RPMI-8226 leukemia): > 100 µM
TGI (RXF-631 renal): > 100 µM
TGI (SF-268 CNS): > 100 µM
TGI (SF-295 CNS): > 100 µM
TGI (SF-539 CNS): > 100 µM
TGI (SK-MEL-2 melanoma): > 100 µM
TGI (SK-MEL-28 melanoma): > 100 µM
TGI (SK-MEL-5 melanoma): > 100 µM
TGI (SK-OV-3 ovarian): > 100 µM
TGI (SN12C renal): > 100 µM
TGI (SNB-19 CNS): > 100 µM
TGI (SNB-75 CNS): > 100 µM
TGI (SNB-78 CNS): > 100 µM
TGI (SW-620 colon): > 100 µM
TGI (TK-10 renal): > 100 µM
TGI (U251 CNS): > 100 µM
TGI (UACC-257 melanoma): > 100 µM
TGI (UACC-62 melanoma): > 100 µM
TGI (UO-31 renal): > 100 µM
